From PubChem BioAssay (NCI)
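Assay format: 96-well plates, 48-hour exposure. GI50: concentration for 50% inhibition of growth. The concentration for full growth arrest is given as TGI.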

What was measured:
Assay in all cases: NCI tumour cell line growth inhibition, 48 h
DMS 114 small cell lung = system: DMS 114 small cell lung
KM20L2 colon = system: KM20L2 colon
LXFL 529 NSCLC = system: LXFL 529 NSCLC
SNB-78 CNS = system: SNB-78 CNS
M19-MEL melanoma = system: M19-MEL melanoma
DMS 273 small cell lung = system: DMS 273 small cell lung
RXF-631 renal = system: RXF-631 renal
P388 leukemia = system: P388 leukemia
SN12K1 renal = system: SN12K1 renal
XF 498 CNS = system: XF 498 CNS
P388/ADR leukemia = system: P388/ADR leukemia

SMILES	TGI (DMS 114 small cell lung) [nM]	TGI (KM20L2 colon) [nM]	TGI (LXFL 529 NSCLC) [nM]	TGI (SNB-78 CNS) [nM]	TGI (M19-MEL melanoma) [nM]	TGI (DMS 273 small cell lung) [nM]	TGI (RXF-631 renal) [nM]	GI50 (SNB-78 CNS) [nM]	TGI (P388 leukemia) [nM]	TGI (SN12K1 renal) [nM]	TGI (XF 498 CNS) [nM]	TGI (P388/ADR leukemia) [nM]
CCC1=C(C[C@H]2NCCc3cc(OC)c(OC)cc32)C[C@H]2c3cc(OC)c(OC)cc3CCN2C1	59.8	140	6400	1320	98.3	109	1430	–	–	–	–	–
Cc1ccc(N2C(=O)C3CSCN3C2=O)cc1 (stereo not given)	> 100000	–	–	> 100000	> 100000	–	–	> 100000	> 100000	> 100000	> 100000	> 100000
